From ChEMBL document CHEMBL5715954, “Silencing c-Myc translation as a therapeutic strategy through targeting PI3Kδ and CK1ε in hematological malignancies” (Blood, 2017)

Legend:
Design in all cases: scale not given: the % may be the effect or the level left
[1] = biological target: Calcium/calmodulin-dependent protein kinase kinase 2 (Homo sapiens) (UniProt Q96RR4); assay: Inhibition of human CAMKK2 assessed as enzyme activity at 1 uM using myelin basic protein as substrate preincubated for 20 mins followed by [gamma-33P]-ATP addition and measured after 120 mins by radiometric Hot-SpotSM Kinase assay relative to control
[2] = biological target: Macrophage colony-stimulating factor 1 receptor (Homo sapiens) (UniProt P07333); assay: Inhibition of human FMS assessed as enzyme activity at 1 uM using poly[Glu:Tyr] (4:1) as substrate preincubated for 20 mins followed by [gamma-33P]-ATP addition and measured after 120 mins by radiometric Hot-SpotSM Kinase assay relative to control
[3] = biological target: T1, Serine/threonine-protein kinase LATS1 (Homo sapiens) (UniProt O95835); assay: Inhibition of human LATS1 assessed as enzyme activity at 1 uM using KKRNRRLSVA as substrate preincubated for 20 mins followed by [gamma-33P]-ATP addition and measured after 120 mins by radiometric Hot-SpotSM Kinase assay relative to control
T1 sequence (whole entry): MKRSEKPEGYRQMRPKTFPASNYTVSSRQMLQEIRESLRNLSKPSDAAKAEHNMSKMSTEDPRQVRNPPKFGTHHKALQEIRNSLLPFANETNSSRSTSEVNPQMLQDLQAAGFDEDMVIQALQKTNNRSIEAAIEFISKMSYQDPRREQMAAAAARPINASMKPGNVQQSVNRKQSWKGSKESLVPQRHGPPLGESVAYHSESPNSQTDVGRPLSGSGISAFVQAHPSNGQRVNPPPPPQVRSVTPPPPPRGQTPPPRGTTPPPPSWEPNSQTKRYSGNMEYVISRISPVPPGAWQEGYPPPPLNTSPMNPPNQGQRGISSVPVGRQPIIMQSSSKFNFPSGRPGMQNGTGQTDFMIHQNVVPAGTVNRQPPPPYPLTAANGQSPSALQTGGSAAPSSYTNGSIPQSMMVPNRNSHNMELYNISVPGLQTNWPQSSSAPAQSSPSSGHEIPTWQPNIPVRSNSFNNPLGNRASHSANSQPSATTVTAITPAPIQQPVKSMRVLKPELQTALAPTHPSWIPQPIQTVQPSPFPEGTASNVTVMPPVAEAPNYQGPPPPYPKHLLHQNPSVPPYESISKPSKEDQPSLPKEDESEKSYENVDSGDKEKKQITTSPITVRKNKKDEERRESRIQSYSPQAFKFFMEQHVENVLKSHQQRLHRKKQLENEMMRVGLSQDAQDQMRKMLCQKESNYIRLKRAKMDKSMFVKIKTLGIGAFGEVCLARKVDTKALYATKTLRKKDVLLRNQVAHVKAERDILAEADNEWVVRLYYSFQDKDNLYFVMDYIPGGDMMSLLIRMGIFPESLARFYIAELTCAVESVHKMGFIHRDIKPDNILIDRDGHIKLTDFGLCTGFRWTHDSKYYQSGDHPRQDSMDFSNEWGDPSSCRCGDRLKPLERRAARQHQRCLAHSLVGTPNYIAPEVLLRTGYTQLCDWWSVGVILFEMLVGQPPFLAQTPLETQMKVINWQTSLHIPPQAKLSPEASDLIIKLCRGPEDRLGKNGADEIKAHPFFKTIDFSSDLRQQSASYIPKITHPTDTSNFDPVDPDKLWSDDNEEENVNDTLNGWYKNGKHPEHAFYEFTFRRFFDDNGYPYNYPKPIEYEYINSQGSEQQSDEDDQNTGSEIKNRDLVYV

[4] = biological target: T2, Serine/threonine-protein kinase tousled-like 1 (Homo sapiens) (UniProt Q9UKI8); assay: Inhibition of human TLK1 assessed as enzyme activity at 1 uM using histone H3 as substrate preincubated for 20 mins followed by [gamma-33P]-ATP addition and measured after 120 mins by radiometric Hot-SpotSM Kinase assay relative to control
T2 sequence (whole entry): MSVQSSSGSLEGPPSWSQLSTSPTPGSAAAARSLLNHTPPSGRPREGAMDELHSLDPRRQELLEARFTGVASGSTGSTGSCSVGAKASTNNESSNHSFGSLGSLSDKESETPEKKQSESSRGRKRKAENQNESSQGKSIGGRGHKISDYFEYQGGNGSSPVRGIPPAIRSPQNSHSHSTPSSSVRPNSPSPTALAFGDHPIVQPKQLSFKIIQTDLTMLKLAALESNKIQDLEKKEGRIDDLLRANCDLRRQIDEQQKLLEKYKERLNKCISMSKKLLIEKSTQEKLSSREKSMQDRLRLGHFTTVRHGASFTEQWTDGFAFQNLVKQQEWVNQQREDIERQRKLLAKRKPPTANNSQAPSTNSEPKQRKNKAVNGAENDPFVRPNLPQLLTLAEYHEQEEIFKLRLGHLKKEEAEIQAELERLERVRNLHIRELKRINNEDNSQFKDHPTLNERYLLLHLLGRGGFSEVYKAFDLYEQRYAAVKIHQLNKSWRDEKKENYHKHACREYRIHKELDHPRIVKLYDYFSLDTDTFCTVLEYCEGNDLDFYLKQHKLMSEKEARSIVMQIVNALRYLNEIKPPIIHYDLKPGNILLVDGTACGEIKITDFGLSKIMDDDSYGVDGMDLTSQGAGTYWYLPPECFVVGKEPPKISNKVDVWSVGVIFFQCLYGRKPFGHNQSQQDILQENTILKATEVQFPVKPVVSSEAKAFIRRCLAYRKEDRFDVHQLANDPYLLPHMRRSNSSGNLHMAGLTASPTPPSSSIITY

Chain of Macrophage colony-stimulating factor 1 receptor (Homo sapiens) (P07333 whole entry): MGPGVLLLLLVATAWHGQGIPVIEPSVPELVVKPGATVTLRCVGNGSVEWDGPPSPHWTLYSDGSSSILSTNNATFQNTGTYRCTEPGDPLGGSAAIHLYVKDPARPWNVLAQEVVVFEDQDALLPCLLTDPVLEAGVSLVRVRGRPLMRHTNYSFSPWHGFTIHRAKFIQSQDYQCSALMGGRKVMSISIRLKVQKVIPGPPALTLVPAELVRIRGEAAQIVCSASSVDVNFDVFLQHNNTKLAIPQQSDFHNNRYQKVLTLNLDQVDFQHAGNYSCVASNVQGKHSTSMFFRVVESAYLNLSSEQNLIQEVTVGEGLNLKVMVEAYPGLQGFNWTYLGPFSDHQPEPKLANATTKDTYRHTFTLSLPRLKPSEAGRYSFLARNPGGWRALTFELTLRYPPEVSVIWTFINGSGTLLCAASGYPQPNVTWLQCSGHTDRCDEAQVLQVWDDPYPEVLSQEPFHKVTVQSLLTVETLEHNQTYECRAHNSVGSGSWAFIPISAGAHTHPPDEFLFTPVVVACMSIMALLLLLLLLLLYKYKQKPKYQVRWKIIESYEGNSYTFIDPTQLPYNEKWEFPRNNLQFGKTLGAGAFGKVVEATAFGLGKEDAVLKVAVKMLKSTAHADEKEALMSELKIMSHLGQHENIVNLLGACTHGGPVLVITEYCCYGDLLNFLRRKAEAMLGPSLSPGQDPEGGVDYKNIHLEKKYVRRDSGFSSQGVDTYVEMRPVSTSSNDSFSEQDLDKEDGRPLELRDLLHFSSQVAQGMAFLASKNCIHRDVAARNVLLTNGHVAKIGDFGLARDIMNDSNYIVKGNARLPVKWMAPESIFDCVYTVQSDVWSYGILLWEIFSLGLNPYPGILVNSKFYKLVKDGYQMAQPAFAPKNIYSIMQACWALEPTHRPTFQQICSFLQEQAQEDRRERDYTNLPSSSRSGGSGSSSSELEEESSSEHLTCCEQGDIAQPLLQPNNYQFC
Chain of Calcium/calmodulin-dependent protein kinase kinase 2 (Homo sapiens) (Q96RR4 2-588 limits assumed): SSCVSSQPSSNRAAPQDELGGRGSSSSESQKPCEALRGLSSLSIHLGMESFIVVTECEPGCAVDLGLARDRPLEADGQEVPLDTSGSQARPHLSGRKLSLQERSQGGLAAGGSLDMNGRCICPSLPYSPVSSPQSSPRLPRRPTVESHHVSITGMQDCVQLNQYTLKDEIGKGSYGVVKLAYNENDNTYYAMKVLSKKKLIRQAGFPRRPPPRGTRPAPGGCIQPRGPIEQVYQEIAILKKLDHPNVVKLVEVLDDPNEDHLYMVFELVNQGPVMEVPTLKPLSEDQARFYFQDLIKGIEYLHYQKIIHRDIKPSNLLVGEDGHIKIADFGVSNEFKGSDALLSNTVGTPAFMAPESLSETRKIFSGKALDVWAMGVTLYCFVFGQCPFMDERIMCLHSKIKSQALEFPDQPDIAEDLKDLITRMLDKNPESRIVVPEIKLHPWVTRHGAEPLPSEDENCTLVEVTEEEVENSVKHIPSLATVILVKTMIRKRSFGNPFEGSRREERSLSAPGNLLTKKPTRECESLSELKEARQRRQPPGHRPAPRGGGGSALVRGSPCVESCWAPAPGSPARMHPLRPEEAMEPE

C[C@H](Nc1ncnc2nc[nH]c12)c1cc2cccc(Cl)c2c(=O)n1-c1ccccc1
Activity [1]: 96.6%
Activity [2]: 100%
Activity [3]: 99.8%
Activity [4]: 105%

CC[C@H](Nc1ncnc2[nH]cnc12)c1nc2cccc(F)c2c(=O)n1-c1ccccc1
Activity [1]: 106%
Activity [2]: 98.1%
Activity [3]: 95.4%
Activity [4]: 100%

CC(C)Oc1ccc(-c2nn([C@@H](C)c3oc4ccc(F)cc4c(=O)c3-c3cccc(F)c3)c3ncnc(N)c23)cc1F [UMBRALISIB]
Activity [1]: 98.5%
Activity [2]: 104%
Activity [3]: 96.3%
Activity [4]: 102%
